Columns and labels:
[1] = tested on: Sprague-Dawley rats; experiment: Food intake in rats after intragastric infusion of anandamide; assay type: in vivo, rat; settings: for 9-h cumulative food intake: intragastric infusion in sunflower oil, rats food-deprived 15 h, control 27.1 g
Description: An experiment was conducted to measure the effect of different levels of anandamide intake on food intake in rats. Thirteen adult male Sprague-Dawley rats (Charles River, Germany) were surgically equipped with a chronic gastric cannula. Animals were individually housed in plastic cages (42×22×36 cm) with stainless steel grid floors in a temperature-controlled (22±2° C.) room. The 12:12-h light-dark cycle was inversed (lights off 09:00 h).
Rats had free access to water and restricted access to ground extruded feed (No. 3436, Provimi Kliba-nafag, Kaiseraugst, Switzerland). To prevent spoilage of food, it was placed in cups at the end of a tunnel (5×10×30 cm) that protruded from the side of the cage, with its bottom 5 cm above the cage floor. Food cups were mounted on electronic balances (Mettler PM 3000, Switzerland) that were interfaced with a computer (Olivetti M 300, Germany). Weights of the food cups were recorded the every 30 s, enabling continuous measurement of spontaneous feeding patterns. Anandamide (98% purity, dissolved in ethanol) was obtained from Cayman Chemical Company, Michigan, USA). It was stored deep-frozen, until the experiment. Than the proper quantity was mixed into sunflower oil.
Before starting the experimental period, rats (394±7 g) were adapted to the restricted food access. One day prior to the test, they were also adapted to infusion of sunflower oil. The experimental period lasted five consecutive days. During the experiment, rats were deprived from food each day for 15 h (18.00-9.00 h). […] Each of these doses was given to three rats. One rat was excluded from the experiment after 2 days, and a spare animal was included.

[2] = tested on: rats; settings: anandamide introduced by injection (Williams & Kirkham 2002); cited from earlier work
[3] = tested on: test animals; settings: introduced into the blood stream; neither decreased nor increased food intake; cited from earlier work

SMILES: CCCCC/C=C\C/C=C\C/C=C\C/C=C\CCCC(=O)NCCO [anandamide, arachidonyl-ethanolamide]
- 9-h cumulative food intake ([1]; 2.5 mg anandamide/d): 25.8 g
- food intake compared to the control ([1]; 2.5 mg/d, intragastric): did not affect food intake
- 9-h cumulative food intake ([1]; 5.0 mg anandamide/d): 27.6 g
- food intake calculated as a mean over the 9-h period ([1]; 5.0 mg versus 0 or 2.5 mg anandamide): significantly lower
- food intake compared to the control ([1]; 5.0 mg, 3 through 6 hours after infusion, P<0.001, difference disappeared later): reduced food intake significantly
- 9-h cumulative food intake, significance versus other treatments ([1]; 7.5 mg anandamide/d versus 0, 2.5 and 5.0 mg): significantly different from the other treatments
- 9-h cumulative food intake ([1]; 7.5 mg anandamide/d): 23.0 g
- food intake calculated as a mean over the 9-h period ([1]; 7.5 mg versus 0 or 2.5 mg anandamide): significantly lower
- food intake compared to the control ([1]; 7.5 mg/d, until 9 h post-infusion): lower food intake persisted until 9 h post-infusion
- appetite / feeding effect [2]: Appetite stimulating effects were found
- voluntary food intake [3]: ineffective

Reference: patent US20100063156A1, “ANANDAMIDE” (priority 2006, published 2010)
